Data taken from patent publication US7622450B2, “Flavone C-glycoside derivatives and compositions containing the derivatives” (Suntory Holdings Limited, priority 2002, dated 2009).

Key:
DNFB-induced ear edema = experiment: Inhibitory effect on mouse ear contact dermatitis (DNFB-induced ear edema); format: in vivo, ICR strain mice; conditions: for Dose producing 50% inhibition of ear edema: DNFB-induced ear edema, mice, p.o.; for DNFB-induced edema vs control group: ICR mice, Student's t-test
Experimental: (§1) ICR strain mice at 7 weeks of age were purchased from CLEA Japan and used for experiments after preconditioning for 1 week. The yellow powder obtained in Example 1 [compound (1)] was suspended in 0.5% sodium carboxymethylcellulose/0.01N hydrochloric acid to prepare sample formulations at three concentrations corresponding to doses of 0.2, 1.0 and 5.0 μg/kg in a dose volume of 10 ml/kg. […] in six mice per group was established in 5 days by subcutaneous injection of 100 μl of a solution of 1% 2,4-dinitrofluorobenzene (DNFB) in ethanol on the back. On day 6, a solution of 1% DNFB in olive oil was applied on the right ear to induce ear contact dermatitis. After 24 hours, both ears were punched out in a diameter of 8 mm and weighed. Compound (1) was continuously orally administered for 7 days from the day before the primary challenge until the day on which edema was induced. A control group was treated with 0.5% sodium carboxymethylcellulose/0.01N hydrochloric acid. The experimental results were expressed as the average percentage of edema on the right in relation to left ears with standard deviation using Student's t-test for evaluating the significance between groups.
as §1, with “(2)]” for “(1)]”, “1.0, 10” for “0.2, 1.0”, “100” for “5.0”, “(2)” for “(1)”
The same procedures as in Experimental examples 1 and 2 were used to compare the inhibitory effects of a corticosteroid and several flavonoids (FIG. 3) on DNFB-induced ear edema formation with those of compound (1) and compound (2). The experimental results were expressed as the dose producing a 50% inhibition of DNFB-induced ear edema.

peritoneal mast cells = experiment: Inhibitory effect on histamine release from peritoneal mast cells (Compound 48/80); format: cell-based, Wistar strain rats; conditions: Mast cell, rat peritoneal mast cells
Experimental: Wistar strain rats at 7 weeks of age were purchased from CLEA Japan and used for experiments after preconditioning for 1 week. After Wistar strain rats were decapitated under ether anesthesia, Tyrode solution was intraperitoneally injected. Mast cells were routinely isolated and suspended at […] in Tyrode solution containing 0.1% bovine serum albumin (BSA) to prepare a mast cell suspension. The mast cell suspension was incubated with compound (1) or compound (2) dissolved in 50% methanol at 37° C. for 5 minutes. Then, the suspension was further incubated with Compound 48/80 at 37° C. for 10 minutes and cooled on ice and then centrifuged. Then, the free histamine content in the resulting supernatant was measured on a high-speed liquid chromatograph by the post-column method using ortho-phthalaldehyde (OPA) according to the method of Onda et al. [J. Med. Sci., 27, 93-97(1978)]. The experimental results were expressed as the percentage of histamine release inhibited by the treatment with the samples as compared with the treatment with the solvent alone.

| SMILES | Dose producing 50% inhibition of ear edema (DNFB-induced ear edema) [mg/kg p.o.] | other results |
| --- | --- | --- |
| O=c1cc(-c2ccc(O)cc2)oc2cc(O)cc(O)c12 [Apigenin] | 247 |  |
| O=c1cc(-c2ccc(O)cc2)oc2cc3c(c(O)c12)[C@@H]1O[C@H](CO)[C@@H](O)[C@H](O)[C@@H]1O3 [Compound (1)] | 0.05 | DNFB-induced edema vs control group (DNFB-induced ear edema; 1.0 μg/kg orally for 7 days): significantly inhibited; DNFB-induced edema vs control group (DNFB-induced ear edema; 5.0 μg/kg orally for 7 days): significantly inhibited; inhibition at 5 µg/mL (peritoneal mast cells; concentration 5.0 μg/ml): 62.3% |
| O=c1cc(-c2ccc(O)cc2)oc2c3c(cc(O)c12)O[C@H]1[C@@H](O)[C@H](O)[C@@H](CO)O[C@@H]31 [Compound (2)] | 0.17 | DNFB-induced edema vs control group (DNFB-induced ear edema; 100 μg/kg orally for 7 days): significantly inhibited; inhibition at 50 µg/mL (peritoneal mast cells; concentration 50.0 μg/ml): 51.2% |
| C[C@@H]1C[C@H]2[C@@H]3CCC4=CC(=O)C=C[C@]4(C)[C@@]3(F)[C@@H](O)C[C@]2(C)[C@@]1(O)C(=O)CO [Dexamethasone] | 1.5 |  |
| O=c1c(O)c(-c2ccc(O)c(O)c2)oc2cc(O)cc(O)c12 [Quercetin] | 265 |  |
| C[C@@H]1O[C@@H](O[C@@H]2[C@@H](O)[C@H](O)[C@@H](CO)O[C@H]2c2c(O)cc(O)c3c(=O)cc(-c4ccc(O)cc4)oc23)[C@H](O)[C@H](O)[C@H]1O [Rhamnosyl vitexin] | 146 |  |
| C[C@@H]1O[C@@H](OC[C@H]2O[C@@H](Oc3c(-c4ccc(O)c(O)c4)oc4cc(O)cc(O)c4c3=O)[C@H](O)[C@@H](O)[C@@H]2O)[C@H](O)[C@H](O)[C@H]1O [Rutin] | 123 |  |
| O=c1cc(-c2ccc(O)cc2)oc2c([C@@H]3O[C@H](CO)[C@@H](O)[C@H](O)[C@H]3O)c(O)cc(O)c12 [Vitexin] | 103 |  |
